According to paper PMC3525952 (Planta medica, 2008):
Values after ≈ are worked out from the molar mass of the structure shown. Like-named read-outs stand apart in the source and are kept apart here.

Experiments:
CB2 receptor = CB2 receptor (Homo sapiens, UniProt P34972); test: Radioligand
CB1 receptor = CB1 receptor (Homo sapiens, UniProt P21554); test: Radioligand
[1] = Cytotoxicity on HeLa cell monolayers; type: cell-based; conditions: human, confluent HeLa cell monolayers
AChE EC 3.1.1.7 = AChE EC 3.1.1.7 (Homo sapiens, UniProt P22303); test: Spectrophotometric AChE inhibition assay; type: biochemical
Sequence of AChE EC 3.1.1.7 (P22303 32-614): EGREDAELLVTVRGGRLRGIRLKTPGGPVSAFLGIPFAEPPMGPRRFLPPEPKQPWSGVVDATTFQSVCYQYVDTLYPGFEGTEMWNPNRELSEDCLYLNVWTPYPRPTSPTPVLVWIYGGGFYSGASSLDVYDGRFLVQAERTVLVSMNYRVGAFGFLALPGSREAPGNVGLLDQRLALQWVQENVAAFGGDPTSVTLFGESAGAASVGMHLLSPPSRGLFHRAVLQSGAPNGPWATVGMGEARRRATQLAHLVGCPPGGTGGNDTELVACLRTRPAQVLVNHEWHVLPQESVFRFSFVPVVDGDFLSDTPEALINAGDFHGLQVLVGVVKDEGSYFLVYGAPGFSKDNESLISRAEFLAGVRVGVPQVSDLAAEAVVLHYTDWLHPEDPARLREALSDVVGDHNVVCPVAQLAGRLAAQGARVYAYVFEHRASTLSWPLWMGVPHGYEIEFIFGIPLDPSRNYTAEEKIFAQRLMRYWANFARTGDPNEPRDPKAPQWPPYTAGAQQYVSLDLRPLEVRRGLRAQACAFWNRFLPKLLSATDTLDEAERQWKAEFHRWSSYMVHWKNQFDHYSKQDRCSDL

rhinovirus 2 (HRV-2) = test: Cytopathic effect; type: cell-based, human rhinovirus; conditions: for IC50: read-out: HRV (experimental result, activity class); for antiviral activity against HRV-2 (in words): HeLa cells, non-cytotoxic concentrations
HeLa cell monolayers = test: Cytotoxicity on HeLa cell monolayers; type: cell-based; conditions: HeLa cells; for CC50: 72 h incubation, two independent tests
[2] = hCB2 Ki ± SD, displacement of [3H]CP-55,940, Cheng-Prusoff
[3] = CB2 (experimental result, activity class), Table 5 overview
[4] = AChE (experimental result, activity class), Table 5 overview
[5] = AChE IC50 ± SD, in vitro, modified Ellman's method, 96-well microplate, n = 4
[6] = read-out: AChE (experimental result, activity class), Table 5 overview
[7] = read-out: CB2 (experimental result, activity class), Table 5 overview
[8] = read-out: hCB2 Ki ± SD, displacement of [3H]CP-55,940, Cheng-Prusoff

Sequence of CB2 receptor (P34972 whole entry): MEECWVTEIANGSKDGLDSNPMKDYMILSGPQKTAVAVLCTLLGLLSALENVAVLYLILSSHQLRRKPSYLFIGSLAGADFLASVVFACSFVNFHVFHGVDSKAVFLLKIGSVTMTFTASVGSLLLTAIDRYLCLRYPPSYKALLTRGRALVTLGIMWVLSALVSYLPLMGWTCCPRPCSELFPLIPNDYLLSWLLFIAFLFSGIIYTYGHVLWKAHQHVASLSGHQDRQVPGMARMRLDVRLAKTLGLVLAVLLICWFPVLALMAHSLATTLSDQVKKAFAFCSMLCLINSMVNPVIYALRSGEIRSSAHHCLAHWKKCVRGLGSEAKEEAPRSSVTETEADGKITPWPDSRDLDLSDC
Sequence of CB1 receptor (P21554 whole entry): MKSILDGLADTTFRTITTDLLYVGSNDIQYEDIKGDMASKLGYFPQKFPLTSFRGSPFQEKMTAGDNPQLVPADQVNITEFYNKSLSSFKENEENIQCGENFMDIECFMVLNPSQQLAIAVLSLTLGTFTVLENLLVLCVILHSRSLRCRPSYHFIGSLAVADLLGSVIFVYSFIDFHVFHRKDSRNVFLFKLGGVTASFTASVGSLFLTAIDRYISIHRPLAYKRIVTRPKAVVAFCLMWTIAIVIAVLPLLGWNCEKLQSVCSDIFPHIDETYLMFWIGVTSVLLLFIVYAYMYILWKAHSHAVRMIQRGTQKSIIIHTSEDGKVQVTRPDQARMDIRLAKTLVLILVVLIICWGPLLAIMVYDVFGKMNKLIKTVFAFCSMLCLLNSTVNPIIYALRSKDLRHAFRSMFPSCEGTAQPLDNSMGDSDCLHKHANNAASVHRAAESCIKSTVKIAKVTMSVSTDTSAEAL

CCCCCc1cc(O)c2c(c1)OC(C)(C)c1ccc(C)cc1-2 [Cannabinol, reference compound]
Ki (CB2 receptor; [2]): 0.12 ± 0.01 µM | Ki (CB1 receptor): 0.42 ± 0.13 µM

COc1cc2c(c(O)c1OC)c(=O)c1ccccc1n2C [Compound 1, arborinine]
Ki (CB2 receptor; [3]): > 100 µM | Ki (CB2 receptor; [2]): > 100 µM | CC50 at 72 h [1]: > 50 µg/mL | AChE inhibiting activity (in words) (AChE EC 3.1.1.7): strongest AChE inhibiting activity | IC50 (AChE EC 3.1.1.7; [4]): < 50 µM | IC50 (AChE EC 3.1.1.7; [5]): 34.7 ± 7.1 µM | IC50 (rhinovirus 2 (HRV-2); Enterovirus, HRV2, HeLa): < 10 µM | antiviral activity against HRV-2 (in words) (rhinovirus 2 (HRV-2)): most active antiviral constituents | Ki (CB1 receptor): > 100 µM

COc1cc2cc(Oc3ccc4ccc(=O)oc4c3)c(=O)oc2cc1OC [Compound 2, daphnoretin methyl ether]
CC50 (HeLa cell monolayers): > 50 µg/mL | IC50 (AChE EC 3.1.1.7; [6]): > 500 µM | antiviral activity against HRV-2 (in words) (rhinovirus 2 (HRV-2)): Weak, but significant and dose-dependent antiviral activities | IC50 (rhinovirus 2 (HRV-2); Table 5 overview): 20 to 100 µM

C=CC(C)(C)c1cc2cc3c(cc2oc1=O)OC(C(C)(C)OC(C)=O)C3 (centres unmarked) [Compound 3, rutamarin]
Ki (CB2 receptor; [3]): < 10 µM | Ki (CB2 receptor; CB2 Ki, displacement of [3H]CP-55,940): 7.41 µM | Ki (CB2 receptor; [2]): 7.4 ± 0.6 µM | binding affinity to the CB receptors (in words) (CB2 receptor; radioligand displacement assay): selective affinity to the CB2 receptor | cytotoxicity (in words) (HeLa cell monolayers): pronounced cytotoxicity | CC50 at 72 h [1]: 0.9 µg/mL (≈ 2.53 µM) | IC50 (AChE EC 3.1.1.7; [4]): > 500 µM | IC50 (AChE EC 3.1.1.7; [5]): > 500 µM | HRV (experimental result, activity class) (rhinovirus 2 (HRV-2); Table 5 overview): cytotoxic | Ki (CB1 receptor): > 100 µM

CC(C)=CCOc1c2ccoc2cc2oc(=O)ccc12 [Compound 4, isoimperatorine]
IC50 (AChE EC 3.1.1.7; [4]): > 500 µM | IC50 (AChE EC 3.1.1.7; [5]): > 500 µM

O=c1ccc2cc3ccoc3cc2o1 [Compound 5, psoralen]
IC50 (AChE EC 3.1.1.7; [4]): > 500 µM | IC50 (AChE EC 3.1.1.7; [5]): > 500 µM

COc1c2ccoc2cc2oc(=O)ccc12 [Compound 6, bergapten]
IC50 (AChE EC 3.1.1.7; [4]): > 500 µM | IC50 (AChE EC 3.1.1.7; [5]): > 500 µM

COc1c2occc2cc2ccc(=O)oc12 [Compound 7, 8-methoxy psoralene]
IC50 (AChE EC 3.1.1.7; [4]): > 500 µM | IC50 (AChE EC 3.1.1.7; [5]): > 500 µM

Cn1c2c(c(=O)c3ccccc31)CC(O)C(C)(C)O2 (centres unmarked) [Compound 8, S-ribalinine]
Ki (CB2 receptor; [7]): > 100 µM | Ki (CB2 receptor; [8]): > 100 µM | CC50 (HeLa cell monolayers): > 50 µg/mL | IC50 (AChE EC 3.1.1.7; [6]): > 500 µM | antiviral activity against HRV-2 (in words) (rhinovirus 2 (HRV-2)): Weak, but significant and dose-dependent antiviral activities | IC50 (rhinovirus 2 (HRV-2); Table 5 overview): 20 to 100 µM

COc1c(C[C@@H](O)C(C)(C)O)c(=O)n(C)c2ccccc12 [Compound 10, (−)-edulinine]
Ki (CB2 receptor; [7]): > 100 µM | Ki (CB2 receptor; [8]): > 100 µM | IC50 (AChE EC 3.1.1.7; [6]): > 500 µM

O=c1cc(-c2ccc3c(c2)OCO3)[nH]c2ccccc12 [Compound 11, norgraveoline]
CC50 (HeLa cell monolayers): 32.2 µg/mL (≈ 121 µM) | AChE inhibiting activity (in words) (AChE EC 3.1.1.7): Modest effects | IC50 (AChE EC 3.1.1.7; [6]): 50 to 200 µM | IC50 (rhinovirus 2 (HRV-2); Table 5 overview): > 100 µM

COc1ccc2ccc(=O)oc2c1 [Compound 12, 7-methoxycoumarin]
IC50 (AChE EC 3.1.1.7; [4]): > 500 µM | IC50 (AChE EC 3.1.1.7; [5]): > 500 µM

COc1cc2ccc(=O)oc2c(OC)c1OC [Compound 13, 6,7,8-trimethoxycoumarin]
CC50 at 72 h [1]: > 50 µg/mL | AChE inhibiting activity (in words) (AChE EC 3.1.1.7): Modest effects | IC50 (AChE EC 3.1.1.7; [4]): 200 to 500 µM | IC50 (AChE EC 3.1.1.7; [5]): 396 ± 68.5 µM | IC50 (rhinovirus 2 (HRV-2); Enterovirus, HRV2, HeLa): 10 to 20 µM | antiviral activity against HRV-2 (in words) (rhinovirus 2 (HRV-2)): most active antiviral constituents

COC(=O)CC(O)c1cc(OC)c(O)c(OC)c1 (centres unmarked) [Compound 14, Methyl 3-hydroxy-3-(4-hydroxy-3,5-dimethoxyphenyl)propanoate]
CC50 at 72 h [1]: > 50 µg/mL | IC50 (AChE EC 3.1.1.7; [5]): > 500 µM | IC50 (AChE EC 3.1.1.7; [6]): > 500 µM | IC50 (rhinovirus 2 (HRV-2); Enterovirus, HRV2, HeLa): > 100 µM

COC(=O)C1OC1c1cc(OC)c(O)c(OC)c1 (centres unmarked) [Compound 15, Methyl 3-(4-hydroxy-3,5-dimethoxyphenyl)oxirane-2-carboxylate]
CC50 at 72 h [1]: > 50 µg/mL | IC50 (AChE EC 3.1.1.7; [5]): > 500 µM

COC(=O)CCc1cc2ccoc2c(OC)c1O [Compound 16, Methyl 3-(6-hydroxy-7-methoxybenzofuran-5-yl)propanoate]
CC50 at 72 h [1]: > 50 µg/mL | IC50 (AChE EC 3.1.1.7; [5]): > 500 µM | IC50 (AChE EC 3.1.1.7; [6]): > 500 µM | IC50 (rhinovirus 2 (HRV-2); Enterovirus, HRV2, HeLa): 20 to 100 µM | antiviral activity against HRV-2 (in words) (rhinovirus 2 (HRV-2)): Weak, but significant and dose-dependent antiviral activities

Cc1cc(CCCOc2c(C)cc(-c3noc(C(F)(F)F)n3)cc2C)on1 [Pleconaril, reference compound]
CC50 at 72 h [1]: 12.6 µg/mL (≈ 33 µM)

isoplatydesmin [Compound 9]
Ki (CB2 receptor; [8]): > 100 µM | AChE inhibiting activity (in words) (AChE EC 3.1.1.7): Modest effects
